Where two headings read alike, the source gives them in different places.
How the values were obtained:
[1] = target: T1, CYP1A2 (Homo sapiens, UniProt P05177); assay: Cytochrome P450 inhibition, human liver microsomes; type: in vitro ADME
T1 construct: incubation of isoform-specific substrates with human liver microsomes; from tissue; host or cells: human liver microsomes
T1 sequence (P05177 1-516): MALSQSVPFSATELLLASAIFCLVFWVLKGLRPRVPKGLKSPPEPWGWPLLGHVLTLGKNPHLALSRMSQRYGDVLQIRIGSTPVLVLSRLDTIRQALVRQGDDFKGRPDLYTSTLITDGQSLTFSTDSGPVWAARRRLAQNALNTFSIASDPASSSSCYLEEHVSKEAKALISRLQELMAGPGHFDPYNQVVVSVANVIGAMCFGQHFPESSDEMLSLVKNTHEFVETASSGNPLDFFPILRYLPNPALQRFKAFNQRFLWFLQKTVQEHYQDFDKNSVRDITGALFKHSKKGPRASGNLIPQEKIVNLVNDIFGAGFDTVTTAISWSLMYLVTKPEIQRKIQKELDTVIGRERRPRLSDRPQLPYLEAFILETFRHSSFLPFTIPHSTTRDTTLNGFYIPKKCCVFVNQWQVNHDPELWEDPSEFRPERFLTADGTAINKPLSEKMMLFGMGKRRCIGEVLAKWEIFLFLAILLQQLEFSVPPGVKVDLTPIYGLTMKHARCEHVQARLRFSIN
Description: Direct CYP inhibition studies were conducted using conditions described previously ([43]) following incubation of isoform-specific substrates with human liver microsomes. The formation of known metabolites mediated by a specific CYP isoform was monitored. CYP isoform-specific pathways (and positive control inhibitors) included CYP1A2: phenacetin O-deethylation (furafylline), CYP2B6: bupropion hydroxylation (PPP), CYP2C8: amodiaquine deethylation (quercetin) CYP2C9: tolbutamide methylhydroxylation (sulfaphenazole), CYP2C19: (S)-mephenytoin 4’-hydroxylation (ticlopidine), CYP2D6: dextromethorphan O-demethylation (quinidine), and CYP3A: midazolam 1’-hydroxylation and testosterone 6β-hydroxylation (ketoconazole). […] The organic solvent content was maintained at less than 1% (v/v). NADPH was added to initiate the reaction which was then quenched by the addition of acetonitrile containing internal standard at specified times. Concentrations of the isoform-specific metabolites were quantified by LC-MS (Waters Xevo TQD triple quadrupole MS coupled to a Waters Acquity UPLC system) relative to calibration standards prepared in pre-quenched microsomal matrix.
Time dependent inhibition was assessed using an “IC50 shift” method based on a previous publication ([44]). […] A shift in the IC50 in the presence of NADPH (relative to the absence) was used as an indication of time dependent inhibition. Reference direct and time-dependent inhibitors were included in the assays.

[2] = Binding to liver microsomes; type: in vitro ADME; settings: pH 7.4; human liver microsomes 1 mg/mL; read-out: Microsome fraction unbound
Description: Dialysis was conducted for 6 h and parallel non-dialyzed samples were included to confirm the absence of compound degradation. Binding to hepatocytes (at a cell density of 1 x 10^6 cells/mL) was calculated from the measured microsomal binding (at 1 mg/mL) as described previously ([26]). The fraction unbound (fu) was determined from the ratio of the dialysate to the donor concentration, assuming that the system was at steady state at the end of the dialysis period. For plasma, the data were corrected for the dilution factor to give a binding value for neat plasma according to previously published methods ([27]).

[3] = In vitro metabolism, liver microsomes; type: in vitro ADME, dog
Description: Compounds were spiked into microsomal matrix prepared in 0.1 M pH 7.4 phosphate buffer containing magnesium chloride (final concentration of 3.3 mM), equilibrated for 5-10 min at 37°C. The reaction was initiated with the addition of freshly prepared solution of NADPH (final 1.3 mM). Control samples without co-factor were included for comparison. Aliquots of the reaction mixtures were taken periodically over 60 min and quenched with acetonitrile containing internal standards (metolazone and diazepam). Quenched samples were maintained on ice for approximately 20-30 min, centrifuged (for 5 min) and the supernatant was analyzed by LC-MS.
In vitro intrinsic clearance (CLint, μL/min/mg or μL/min/10^6 cells) values were calculated from the apparent first order degradation rate constant divided by the microsome concentration or the hepatocyte cell number (10^6 viable cells/mL). In vitro CLint values were then divided by the fraction unbound in the in vitro test system (to give CLint,u) and scaled to in vivo values (mL/min/kg) using published physiological scaling factors ([28]). Blood clearance in each species was then calculated using the well-stirred model of hepatic extraction (equation 2) where Q is the hepatic blood flow and fu,blood is calculated from fu,plasma/B:P: [2] PredictedCLblood=Q x fu,blood x CLint,u/Q+fu,blood x CLint,u
Blood clearance values were converted to plasma clearance by multiplying by the B:P.

Structure (SMILES): Cc1[nH]c2nc(N)nc(C)c2c1-c1ccc(C#N)c2c1OCO2 [DNDI-6174]
- IC50 ([1]; CYP1A2, read-out: Direct inhibition IC50): 5.1 µM
- IC50 ([1]; with NADPH preincubation, read-out: Time-dependent inhibition IC50): 1 µM
- IC50 ([1]; without NADPH preincubation, read-out: Time-dependent inhibition IC50): 3.4 µM
- fraction unbound at 6 h, 0.5 µM [2]: 0.51
- Microsome predicted in vivo CLplasma ([3]; Dog): 0.91 mL/min/kg
- In vitro Microsome CLint ([3]; Dog, 2 independent experiments): 4.8 ± 0.47 µL/min/mg
- microsomal CLint at 0.5 µM ([3]; dog, liver microsomes, pH 7.4, Dog, 2 independent experiments, read-out: In vitro Microsome CLint): 8.3 ± 0.65 µL/min/mg

Source: paper PMC7615677 (Science translational medicine, 2023)
